Reference: PubChem BioAssay (NCI)
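Grown in 96-well plates, cells were treated for 48 hours with each compound at five concentrations. Insufficient inhibition: endpoint recorded as highest concentration tested. The concentration for 50% growth inhibition is given as GI50. TGI denotes the concentration required for complete inhibition of growth.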

Experiments:
Test in all cases: NCI tumour cell line growth inhibition, 48 h
786-0 renal = test system: 786-0 renal
A498 renal = test system: A498 renal
A549 NSCLC = test system: A549 NSCLC
ACHN renal = test system: ACHN renal
BT-549 breast = test system: BT-549 breast
CAKI-1 renal = test system: CAKI-1 renal
CCRF-CEM leukemia = test system: CCRF-CEM leukemia
COLO 205 colon = test system: COLO 205 colon
DU-145 prostate = test system: DU-145 prostate
EKVX NSCLC = test system: EKVX NSCLC
HCC-2998 colon = test system: HCC-2998 colon
HCT-116 colon = test system: HCT-116 colon
HCT-15 colon = test system: HCT-15 colon
HL-60(TB) leukemia = test system: HL-60(TB) leukemia
HOP-62 NSCLC = test system: HOP-62 NSCLC
HOP-92 NSCLC = test system: HOP-92 NSCLC
HS 578T breast = test system: HS 578T breast
HT29 colon = test system: HT29 colon
IGROV1 ovarian = test system: IGROV1 ovarian
K-562 leukemia = test system: K-562 leukemia
KM12 colon = test system: KM12 colon
LOX IMVI melanoma = test system: LOX IMVI melanoma
M14 melanoma = test system: M14 melanoma
MALME-3M melanoma = test system: MALME-3M melanoma
MCF7 breast = test system: MCF7 breast
MDA-MB-231 breast = test system: MDA-MB-231 breast
MDA-MB-435 = test system: MDA-MB-435
MOLT-4 leukemia = test system: MOLT-4 leukemia
NCI-H226 lung = test system: NCI-H226 lung
NCI-H23 lung = test system: NCI-H23 lung
NCI-H460 lung = test system: NCI-H460 lung
NCI-H522 lung = test system: NCI-H522 lung
NCI/ADR-RES ovarian = test system: NCI/ADR-RES ovarian
OVCAR-3 ovarian = test system: OVCAR-3 ovarian
OVCAR-4 ovarian = test system: OVCAR-4 ovarian
OVCAR-5 ovarian = test system: OVCAR-5 ovarian
OVCAR-8 ovarian = test system: OVCAR-8 ovarian
PC-3 prostate = test system: PC-3 prostate
RPMI-8226 leukemia = test system: RPMI-8226 leukemia
RXF 393 renal = test system: RXF 393 renal
SF-268 CNS = test system: SF-268 CNS
SF-295 CNS = test system: SF-295 CNS
SF-539 CNS = test system: SF-539 CNS
SK-MEL-2 melanoma = test system: SK-MEL-2 melanoma
SK-MEL-28 melanoma = test system: SK-MEL-28 melanoma
SK-MEL-5 melanoma = test system: SK-MEL-5 melanoma
SK-OV-3 ovarian = test system: SK-OV-3 ovarian
SN12C renal = test system: SN12C renal
SNB-19 CNS = test system: SNB-19 CNS
SNB-75 CNS = test system: SNB-75 CNS
SR leukemia = test system: SR leukemia
SW-620 colon = test system: SW-620 colon
T-47D breast = test system: T-47D breast
TK-10 renal = test system: TK-10 renal
U251 CNS = test system: U251 CNS
UACC-257 melanoma = test system: UACC-257 melanoma
UACC-62 melanoma = test system: UACC-62 melanoma
UO-31 renal = test system: UO-31 renal

c1ccc2cc(C[n+]3ccn(CCCCCCCCCCCCn4cc[n+](Cc5ccc6ccccc6c5)c4)c3)ccc2c1
GI50 (786-0 renal): 1730 nM
TGI (786-0 renal): 6930 nM
GI50 (A498 renal): 515 nM
TGI (A498 renal): 1620 nM
GI50 (A549 NSCLC): 744 nM
TGI (A549 NSCLC): 3570 nM
GI50 (ACHN renal): 1330 nM
TGI (ACHN renal): 7710 nM
GI50 (BT-549 breast): 467 nM
TGI (BT-549 breast): 1170 nM
GI50 (CAKI-1 renal): 3550 nM
TGI (CAKI-1 renal): 25000 nM
GI50 (CCRF-CEM leukemia): 732 nM
TGI (CCRF-CEM leukemia): 2400 nM
GI50 (COLO 205 colon): 441 nM
TGI (COLO 205 colon): 833 nM
GI50 (DU-145 prostate): 1030 nM
TGI (DU-145 prostate): 3800 nM
GI50 (EKVX NSCLC): 894 nM
TGI (EKVX NSCLC): 4200 nM
GI50 (HCC-2998 colon): 1090 nM
TGI (HCC-2998 colon): 4740 nM
GI50 (HCT-116 colon): 848 nM
TGI (HCT-116 colon): 3210 nM
GI50 (HCT-15 colon): 1480 nM
TGI (HCT-15 colon): 9150 nM
GI50 (HL-60(TB) leukemia): 545 nM
TGI (HL-60(TB) leukemia): 1080 nM
GI50 (HOP-62 NSCLC): 815 nM
TGI (HOP-62 NSCLC): 2650 nM
GI50 (HOP-92 NSCLC): 500 nM
TGI (HOP-92 NSCLC): 1400 nM
GI50 (HS 578T breast): 693 nM
TGI (HS 578T breast): 2480 nM
GI50 (HT29 colon): 693 nM
TGI (HT29 colon): 1870 nM
GI50 (IGROV1 ovarian): 521 nM
TGI (IGROV1 ovarian): 1160 nM
GI50 (K-562 leukemia): 429 nM
TGI (K-562 leukemia): 1190 nM
GI50 (KM12 colon): 553 nM
TGI (KM12 colon): 1410 nM
GI50 (LOX IMVI melanoma): 483 nM
TGI (LOX IMVI melanoma): 941 nM
GI50 (M14 melanoma): 835 nM
TGI (M14 melanoma): 3500 nM
GI50 (MALME-3M melanoma): 469 nM
TGI (MALME-3M melanoma): 1250 nM
GI50 (MCF7 breast): 512 nM
TGI (MCF7 breast): 1170 nM
GI50 (MDA-MB-231 breast): 866 nM
TGI (MDA-MB-231 breast): 2880 nM
GI50 (MDA-MB-435): 682 nM
TGI (MDA-MB-435): 2530 nM
GI50 (MOLT-4 leukemia): 508 nM
TGI (MOLT-4 leukemia): 1020 nM
GI50 (NCI-H226 lung): 984 nM
TGI (NCI-H226 lung): 5520 nM
GI50 (NCI-H23 lung): 722 nM
TGI (NCI-H23 lung): 2400 nM
GI50 (NCI-H460 lung): 814 nM
TGI (NCI-H460 lung): 2960 nM
GI50 (NCI-H522 lung): 470 nM
TGI (NCI-H522 lung): 1250 nM
GI50 (NCI/ADR-RES ovarian): 8090 nM
TGI (NCI/ADR-RES ovarian): 25000 nM
GI50 (OVCAR-3 ovarian): 763 nM
TGI (OVCAR-3 ovarian): 2400 nM
GI50 (OVCAR-4 ovarian): 694 nM
TGI (OVCAR-4 ovarian): 2530 nM
GI50 (OVCAR-5 ovarian): 863 nM
TGI (OVCAR-5 ovarian): 3680 nM
GI50 (OVCAR-8 ovarian): 783 nM
TGI (OVCAR-8 ovarian): 2890 nM
GI50 (PC-3 prostate): 794 nM
TGI (PC-3 prostate): 2810 nM
GI50 (RPMI-8226 leukemia): 898 nM
TGI (RPMI-8226 leukemia): 4150 nM
GI50 (RXF 393 renal): 546 nM
TGI (RXF 393 renal): 1670 nM
GI50 (SF-268 CNS): 746 nM
TGI (SF-268 CNS): 3010 nM
GI50 (SF-295 CNS): 654 nM
TGI (SF-295 CNS): 2130 nM
GI50 (SF-539 CNS): 807 nM
TGI (SF-539 CNS): 2910 nM
GI50 (SK-MEL-2 melanoma): 573 nM
TGI (SK-MEL-2 melanoma): 1270 nM
GI50 (SK-MEL-28 melanoma): 779 nM
TGI (SK-MEL-28 melanoma): 2860 nM
GI50 (SK-MEL-5 melanoma): 502 nM
TGI (SK-MEL-5 melanoma): 1040 nM
GI50 (SK-OV-3 ovarian): 661 nM
TGI (SK-OV-3 ovarian): 1800 nM
GI50 (SN12C renal): 652 nM
TGI (SN12C renal): 2090 nM
GI50 (SNB-19 CNS): 773 nM
TGI (SNB-19 CNS): 3490 nM
GI50 (SNB-75 CNS): 381 nM
TGI (SNB-75 CNS): 1340 nM
GI50 (SR leukemia): 679 nM
TGI (SR leukemia): 1670 nM
GI50 (SW-620 colon): 815 nM
TGI (SW-620 colon): 3300 nM
GI50 (T-47D breast): 554 nM
TGI (T-47D breast): 1780 nM
GI50 (TK-10 renal): 992 nM
TGI (TK-10 renal): 4450 nM
GI50 (U251 CNS): 521 nM
TGI (U251 CNS): 2530 nM
GI50 (UACC-257 melanoma): 589 nM
TGI (UACC-257 melanoma): 1530 nM
GI50 (UACC-62 melanoma): 725 nM
TGI (UACC-62 melanoma): 2430 nM
GI50 (UO-31 renal): 2660 nM
TGI (UO-31 renal): 8740 nM
